Measured values as given in patent US11702404B2, “GLP-1R modulating compounds” (priority 2019, dated 2023).

Legend:
[1] = Microsomal stability, human liver microsomes (predicted hepatic clearance); settings: predicted from in vitro microsomal stability data
GLP-1R = GLP-1R (Homo sapiens, UniProt P43220); assay: GLP-1R activation: cAMP increase in CHO cells stably expressing GLP-1R; type: cell-based; settings: cAMP increase, CHO cells stably expressing GLP-1R, 10 point dose response, 30 minutes incubation; read-out: EC50
Sequence of GLP-1R (P43220 24-463): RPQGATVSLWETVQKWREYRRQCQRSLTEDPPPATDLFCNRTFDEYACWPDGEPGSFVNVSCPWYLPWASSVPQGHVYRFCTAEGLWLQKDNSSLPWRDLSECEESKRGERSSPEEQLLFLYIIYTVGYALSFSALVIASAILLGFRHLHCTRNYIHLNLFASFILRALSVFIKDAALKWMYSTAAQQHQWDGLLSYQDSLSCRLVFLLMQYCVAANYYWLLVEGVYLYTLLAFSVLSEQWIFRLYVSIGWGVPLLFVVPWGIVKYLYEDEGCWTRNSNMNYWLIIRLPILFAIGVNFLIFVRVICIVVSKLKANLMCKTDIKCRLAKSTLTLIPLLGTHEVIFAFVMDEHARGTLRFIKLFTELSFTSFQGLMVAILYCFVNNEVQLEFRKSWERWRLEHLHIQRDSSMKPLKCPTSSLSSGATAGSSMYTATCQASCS

| Compound | Predicted Hepatic Clearance (Pred. Cl.) [1] [L/h/kg] | EC50 (GLP-1R) [nM] |
| --- | --- | --- |
| N#Cc1cc(F)c(COc2cccc(-c3ccc(Cc4nc5c(F)cc(C(=O)O)cc5n4C[C@@H]4CCO4)cc3F)n2)cc1F [Example 776] | 0.19 | 26.9 |
| N#Cc1ccc(COc2cccc(-c3cc(F)c(Cc4nc5ccc(C(=O)O)nc5n4CC4(CF)CC4)cc3F)n2)c(F)c1 [Example 440, 2-(4-(6-((4-cyano-2-fluorobenzyl)oxy)pyridin-2-yl)-2,5-difluorobenzyl)-3-((1-(fluoromethyl)cyclopropyl)methyl)-3H-imidazo[4,5-b]pyridine-5-carboxylic acid] | 0.3 | 2.12 |
| COCCn1c([C@@H](C)c2ccc(-c3cccc(OCc4ccc(C#N)cc4F)n3)cc2)nc2ccc(C(=O)O)cc21 (racemic) [Example 447, 2-(1-(4-(6-((4-cyano-2-fluorobenzyl)oxy)pyridin-2-yl)phenyl)ethyl)-1-(2-methoxyethyl)-1H-benzo[d]imidazole-6-carboxylic acid] | 0.3 | 1100 |
| N#Cc1ccc(COc2cccc(-c3ccc(Cc4nc5ccc(C(=O)O)cc5n4C[C@@H]4CCCO4)cc3F)n2)c(F)c1 [Example 834] | 0.38 | 0.69 |
| N#Cc1ccc(COc2nccc(-c3ccc(Cc4nc5c(F)cc(C(=O)O)cc5n4CC4(CF)CC4)cc3F)n2)c(F)c1 [Example 299, 2-(4-(2-((4-cyano-2-fluorobenzyl)oxy)pyrimidin-4-yl)-3-fluorobenzyl)-4-fluoro-1-((1-(fluoromethyl)cyclopropyl)methyl)-1H-benzo[d]imidazole-6-carboxylic acid] | 0.31 | 0.4 |
| COCCn1c(Cc2ccc(-c3cccc(OCc4ccc(C#N)cc4F)n3)s2)nc2ccc(C(=O)O)cc21 [Example 4, 2-((5-(6-((4-cyano-2-fluorobenzyl)oxy)pyridin-2-yl)thiophen-2-yl)methyl)-1-(2-methoxyethyl)-1H-benzo[d]imidazole-6-carboxylic acid] | 0.82 | 1570 |
| COCCn1c(Cc2ccc(-c3cccc(OCc4ccc(C#N)cc4F)n3)cc2F)nc2ccc(C(=O)O)cc21 [Example 2, 2-(4-(6-((4-cyano-2-fluorobenzyl)oxy)pyridin-2-yl)-2-fluorobenzyl)-1-(2-methoxyethyl)-1H-benzo[d]imidazole-6-carboxylic acid] | 0.14 | 2.3 |
| COCCn1c(Cc2ccc(-c3cccc(OCc4ccc(C#N)cc4F)n3)c(C)c2)nc2ccc(C(=O)NS(=O)(=O)C3CC3)cc21 [Example 53, 2-(4-(6-((4-cyano-2-fluorobenzyl)oxy)pyridin-2-yl)-3-methylbenzyl)-N-(cyclopropylsulfonyl)-1-(2-methoxyethyl)-1H-benzo[d]imidazole-6-carboxamide] | 0.54 | 1010 |
| N#Cc1ccc(COc2nccc(-c3ccc(Cc4nc5ccc(C(=O)O)nc5n4CC4(CF)CC4)c(F)c3)n2)c(F)c1 [Example 359, 2-(4-(2-((4-cyano-2-fluorobenzyl)oxy)pyrimidin-4-yl)-2-fluorobenzyl)-3-((1-(fluoromethyl)cyclopropyl)methyl)-3H-imidazo[4,5-b]pyridine-5-carboxylic acid] | <0.11 | 3.09 |
| COCCn1c(Cc2ccc(-c3cccc(OCc4cccc5c4oc4ccccc45)n3)cc2F)nc2ccc(C(=O)O)cc21 [Example 265, 2-(4-(6-(dibenzo[b,d]furan-4-ylmethoxy)pyridin-2-yl)-2-fluorobenzyl)-1-(2-methoxyethyl)-1H-benzo[d]imidazole-6-carboxylic acid] | 0.34 | 2.08 |
| O=C(O)c1ccc2nc(Cc3ccc(-c4cccc(OCc5ccc(Cl)cc5F)n4)cc3F)n(CC3(CF)CC3)c2c1 [Example 352, 2-(4-(6-((4-chloro-2-fluorobenzyl)oxy)pyridin-2-yl)-2-fluorobenzyl)-1-((1-(fluoromethyl)cyclopropyl)methyl)-1H-benzo[d]imidazole-6-carboxylic acid] | <0.11 | 1.45 |
| COCCn1c(Cc2cc(F)c(-c3nc(OCc4ccc(C#N)cc4F)ccc3F)cc2F)nc2c(F)cc(C(=O)O)cc21 [Example 791] | 0.29 | 2.75 |
| COCCn1c(Cc2ccc(-c3cccc(OCc4ccc(C#CC5CC5)cc4F)n3)cc2F)nc2ccc(C(=O)O)cc21 [Example 843] | 0.16 | 17.2 |
| COCCn1c(Cc2c(F)cc(-c3cccnc3OCc3ccc(C#N)cc3OC)cc2F)nc2ccc(C(=O)O)cc21 [Example 118, 2-(4-(2-((4-cyano-2-methoxybenzyl)oxy)pyridin-3-yl)-2,6-difluorobenzyl)-1-(2-methoxyethyl)-1H-benzo[d]imidazole-6-carboxylic acid] | 0.7 | 6.01 |
| N#Cc1cc(F)c(COc2nccc(-c3ccc(Cc4nc5ccc(C(=O)O)cc5n4C[C@@H]4CCO4)cc3F)n2)cc1F [Example 789] | 0.34 | 1.18 |
| N#Cc1ccc(COc2cccc(-c3cc(=O)n(Cc4nc5ccc(C(=O)O)cc5n4C[C@@H]4CCO4)cc3F)n2)c(F)c1 [Example 540, (S)-2-((6-((4-cyano-2-fluorobenzyl)oxy)-5′-fluoro-2′-oxo-[2,4′-bipyridin]-1′(2′H)-yl)methyl)-1-(oxetan-2-ylmethyl)-1H-benzo[d]imidazole-6-carboxylic acid] | 0.20 | 0.12 |
| N#Cc1ccc(COc2cccc(-c3cc(F)c(Cc4nc5c(F)cc(C(=O)O)cc5n4CC4(CF)CC4)cc3F)n2)c(F)c1 [Example 448, 2-(4-(6-((4-cyano-2-fluorobenzyl)oxy)pyridin-2-yl)-2,5-difluorobenzyl)-4-fluoro-1-((1-(fluoromethyl)cyclopropyl)methyl)-1H-benzo[d]imidazole-6-carboxylic] | <0.11 | 1.23 |
| O=C(O)c1ccc2nc(Cc3ccc(-c4cccc(OCc5ccc(Cl)nc5)n4)c(F)c3)n(C[C@@H]3CCO3)c2c1 [Example 806] | 0.43 | 0.54 |
| N#Cc1ccc(COc2cccc(-c3ccc(Cc4nc5ccc(C(=O)O)cc5n4Cc4cncnc4)c(F)c3)n2)c(F)c1 [Example 532, 2-(4-(6-((4-cyano-2-fluorobenzyl)oxy)pyridin-2-yl)-2-fluorobenzyl)-1-(pyrimidin-5-ylmethyl)-1H-benzo[d]imidazole-6-carboxylic acid] | <0.11 | 58.6 |
| N#Cc1ccc(COc2cccc(-c3ccc(Cc4nc5ccc(C(=O)O)cc5n4CC4(n5ccnn5)CC4)cc3)n2)c(F)c1 [Example 461, 1-((1-(1H-1,2,3-triazol-1-yl)cyclopropyl)methyl)-2-(4-(6-((4-cyano-2-fluorobenzyl)oxy)pyridin-2-yl)benzyl)-1H-benzo[d]imidazole-6-carboxylic acid] | 0.43 | 2.47 |
| COCCn1c(Cc2ccc(-c3nc(OCc4ccc(C#N)cc4F)ccc3C)cc2)nc2ccc(C(=O)O)cc21 (single isomer, unassigned) [Example 23, 2-(4-(6-((4-cyano-2-fluorobenzyl)oxy)-3-methylpyridin-2-yl)benzyl)-1-(2-methoxyethyl)-1H-benzo[d]imidazole-6-carboxylic acid] | 0.83 | 1100 |
| COCCn1c(Cc2ccc(-c3cccc(OCc4cccc5c4OCCC5)n3)cc2F)nc2ccc(C(=O)O)cc21 [Example 241, 2-(4-(6-(chroman-8-ylmethoxy)pyridin-2-yl)-2-fluorobenzyl)-1-(2-methoxyethyl)-1H-benzo[d]imidazole-6-carboxylic acid] | 0.59 | 35.1 |
| COCCn1c(Cc2ccc(-c3cccc(OCc4ccc(C#N)cc4F)n3)cc2F)nc2c(F)cc(C(=O)O)cc21 [Example 285, 2-(4-(6-((4-cyano-2-fluorobenzyl)oxy)pyridin-2-yl)-2-fluorobenzyl)-4-fluoro-1-(2-methoxyethyl)-1H-benzo[d]imidazole-6-carboxylic acid] | <0.11 | 2.19 |
| COCCn1c(Cc2cc(F)c(-c3cccc(OCc4ccc(F)cc4F)n3)cc2F)nc2ccc(C(=O)O)cc21 [Example 815] | 0.11 | 2.49 |
| COCCn1c(Cc2cc(F)c(-c3cccc(OCc4ccc(C(F)F)cc4F)n3)cc2F)nc2c(F)cc(C(=O)O)cc21 [Example 635] | 0.11 | 0.46 |
| N#Cc1ccc(COc2cccc(-c3cc(F)c(Cc4nc5ccc(C(=O)O)cc5n4CC4CCOCC4)cc3F)n2)c(F)c1 [Example 546, 2-(4-(6-((4-cyano-2-fluorobenzyl)oxy)pyridin-2-yl)-2,5-difluorobenzyl)-1-((tetrahydro-2H-pyran-4-yl)methyl)-1H-benzo[d]imidazole-carboxylic acid] | 0.53 | 0.33 |
| COCCn1c(Cc2ccc(-c3cccc(OCc4ccc(C#N)cc4F)n3)cc2C)nc2ccc(C(=O)O)cc21 [Example 59, 2-(4-(6-((4-cyano-2-fluorobenzyl)oxy)pyridin-2-yl)-2-methylbenzyl)-1-(2-methoxyethyl)-1H-benzo[d]imidazole-6-carboxylic acid] | <0.11 | 5.6 |
| O=C(O)c1ccc2nc(Cc3ccc(-c4cccc(OCc5ccc(Cl)cc5F)n4)c(F)c3)n(CC3(CF)CC3)c2c1 [Example 535, 2-(4-(6-((4-chloro-2-fluorobenzyl)oxy)pyridin-2-yl)-3-fluorobenzyl)-1-((1-(fluoromethyl)cyclopropyl)methyl)-1H-benzo[d]imidazole-6-carboxylic acid] | 0.25 | 0.66 |
